Measured values: patent US7053175B1, “Synthetic peptides useful in biological assays for detecting infections caused by group O HIV-1 viruses” (Bio-Rad Pasteur, priority 1997, dated 2006)

System: sera from patients infected with group O HIV-1 retroviruses
Assay: Immunoenzymatic test: Test No. 1 (immunoreactivity of peptides coated on microplates)
Format: binding, human
Parameters: key to ABSORBANCE: >: signal greater than the reading capacity of the spectrophotometer
Conditions: for ABSORBANCE: cyclized peptide 2 μg/ml
Method: The sera used ESS, DUR, VAU and HAD are sera from French patients infected with group O HIV-1 retroviruses. The other serum samples from patients infected with group O HIV-1 retroviruses were obtained by the Yaoundé Pasteur Centre in Cameroon and were serotyped group O according to the serological algorithm described in AIDS (1977), 11, pp 445-453.
The HIV-negative sera (n=48) were obtained from healthy volunteers.
The synthetic peptides used were dissolved in water at a concentration of 1 mg/ml (stock solution). For the solid phase sensitization step (coating), 110 μl of a solution at 2 μg/ml of each peptide (obtained by diluting the stock solution with 0.1 M carbonate buffer solution) were added to each well of the microtitre plates Microtiter™ (NUNC). After incubating overnight at room temperature, the microplates were first washed with a Tris-NaCl buffer solution pH 7.4 containing 0.1% of Tween® 20 and 0.001% sodium merthiolate, and then saturated with a PBS solution containing 0.5% of Régilait™ (dried skimmed milk). After aspirating the saturating solution, the plates were heated for 10 min at 50° C.
The serum samples were diluted 1/5 with a skimmed milk solution (citrate buffer supplemented with 0.01% of phenol red, 0.25% of chloroform and 0.25% of Kathon®), deposited in the wells of the plates and incubated for 30 min at 40° C.
After washing with a Tris-NaCl buffer solution pH 7.4 containing 0.1% of Tween® 20 and 0.001% of sodium merthiolate, 100 μl of a solution of conjugate consisting of horseradish peroxidase-labelled anti-human IgG and IgM goat antibodies, containing as preservative 0.01% of sodium merthiolate, in solution in a citrate buffer solution supplemented with 30% glycerol and 25% normal foetal calf serum, were added to each plate well and then the plates were incubated for 30 min at 40° C.
After washing with a Tris-NaCl buffer solution pH 7.4 containing 0.1% of Tween® 20 and 0.001% of sodium merthiolate, the colour was developed by adding, to each well, 100 μl of O-phenylenediamine in solution in hydrogen peroxide. The microplates were then incubated for 30 min at room temperature and in the dark. The coloured reaction was then stopped by addition of 100 μl of 4N sulphuric acid. The absorbance (A) was determined at 490 and 620 nm.
The relative absorbance (A490-A620) read in each well is proportional to the immunoreactivity of each peptide. It indicates the ability of each peptide to react with the biological sample with which the test is carried out. The cut-off value was determined as being an absorbance equal to 0.15. It corresponds to the mean of the negative values (n=48) plus 12 standard deviations.
The reactivity of the peptides of the invention (peptide No. 3 (4B), peptide No. 2 (3B) and peptide No. 1 (2B), all in cyclized form), was compared with that of two synthetic peptides having, as sequence, a portion of the natural sequence of the envelope (env) of the VAU isolate (group O HIV-1 retrovirus) and comprising an immunodominant epitope of gp41.
For the study, these peptides were used in cyclized form.

For “LLSSWGCKGRLVCYTSVQWNET [PEPTIDE No. 3 (4B)]”, the ABSORBANCE (serum 134) was “>”, the ABSORBANCE (serum 402) was “>” and the ABSORBANCE (serum 625) was “>”. For the same sequence, the ABSORBANCE (serum 1062) was “>”, the ABSORBANCE (serum 1105*) was 1.421 and the ABSORBANCE (serum 1581) was “>”. The ABSORBANCE (serum 1702) was “>”, the ABSORBANCE (serum 1754) was “>” and the ABSORBANCE (serum 2294) was “>”. The ABSORBANCE (serum 2312) was “>”, the ABSORBANCE (serum 2313) was “>” and the ABSORBANCE (serum 2352) was “>”. For the same sequence, the ABSORBANCE (serum 2551) was “>”, the ABSORBANCE (serum 2700) was “>” and the ABSORBANCE (serum 3016) was “>”. The ABSORBANCE (serum 3136) was “>”, the ABSORBANCE (serum 3235) was “>” and the ABSORBANCE (serum 3236) was “>”. For the same sequence, the ABSORBANCE (serum 3302) was “>”, the ABSORBANCE (serum 3482) was 2.402 and the ABSORBANCE (serum 3529) was “>”. The ABSORBANCE (serum 3600*) was “>”, the ABSORBANCE (serum 3627*) was “>” and the ABSORBANCE (serum 3637) was “>”. The ABSORBANCE (serum 3653) was 1.352, the ABSORBANCE (serum 3771) was “>” and the ABSORBANCE (serum 3884*) was “>”. For the same sequence, the ABSORBANCE (serum 3891) was “>”, the ABSORBANCE (serum 3935) was “>” and the ABSORBANCE (serum 3945) was “>”. The ABSORBANCE (serum 4021*) was 0.430, the ABSORBANCE (serum 4288*) was “>” and the ABSORBANCE (serum 4364) was “>”. The ABSORBANCE (serum 4434) was “>”, the ABSORBANCE (serum 4477) was “>” and the ABSORBANCE (serum 4489*) was “>”. The ABSORBANCE (serum 5149*) was “>”, the ABSORBANCE (serum 5164) was “>” and the ABSORBANCE (serum 5210) was “>”. For the same sequence, the ABSORBANCE (serum 5270*) was “>”, the ABSORBANCE (serum 5373) was “>” and the ABSORBANCE (serum 5453) was 0.555. For the same sequence, the ABSORBANCE (serum 5766*) was “>”, the ABSORBANCE (serum 5931) was “>” and the ABSORBANCE (serum 5969*) was “>”. The ABSORBANCE (serum 6111) was “>”, the ABSORBANCE (serum 6165) was “>” and the ABSORBANCE (serum 6198*) was “>”. The ABSORBANCE (serum 6295*) was 1.718, the ABSORBANCE (serum 6487) was “>” and the ABSORBANCE (serum 6512*) was 0.746. For the same sequence, the ABSORBANCE (serum 6627) was “>”, the ABSORBANCE (serum 6689*) was 0.710 and the ABSORBANCE (serum 6697) was “>”. The ABSORBANCE (serum 6782) was “>”, the ABSORBANCE (serum 6891) was “>” and the ABSORBANCE (serum 6976*) was “>”. The ABSORBANCE (serum 6998) was “>”, the ABSORBANCE (serum 7007) was 2.136 and the ABSORBANCE (serum 7120) was “>”. The ABSORBANCE (serum 7212) was “>”, the ABSORBANCE (serum 7258*) was “>” and the ABSORBANCE (serum 7297*) was “>”. The ABSORBANCE (serum 7439) was “>”, the ABSORBANCE (serum 7443) was “>” and the ABSORBANCE (serum DUR*) was “>”. For the same sequence, the ABSORBANCE (serum ESS*) was “>**”, the ABSORBANCE (serum HAD) was “>” and the ABSORBANCE (serum VAU*) was 1.342. For the same sequence, the “immunoreactivity compared with the other peptides (in words)” value (summary of Table IV) was “best performance”.
